Measured values as given in patent US20230203060A1 (GENFLEET THERAPEUTICS (SHANGHAI) INC., priority 2020, published 2023).

Molecular target: T1, KRAS G12C (Homo sapiens, UniProt P01116, G12C)
T1 construct: purchased Reactionbiology
Test: KRAS G12C NEA-HTRF experiment (SOS1-catalyzed displacement of GDP by GTP)
Type: biochemical
Outline: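 His-tagged KRAS G12C preloaded with DY647-GDP was preincubated 15 min at 20 °C with compound, then exchanged with SOS1 (0.2 μM working solution) and GTP (200 μM working solution) for 2 h at 20 °C in the dark. HTRF 665/615 nm ratio with anti-His-Tb was normalised to T0 and no-compound controls; IC50 by four-parameter fit.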

T1 sequence (P01116 1-188 isoform P01116-2 G12C): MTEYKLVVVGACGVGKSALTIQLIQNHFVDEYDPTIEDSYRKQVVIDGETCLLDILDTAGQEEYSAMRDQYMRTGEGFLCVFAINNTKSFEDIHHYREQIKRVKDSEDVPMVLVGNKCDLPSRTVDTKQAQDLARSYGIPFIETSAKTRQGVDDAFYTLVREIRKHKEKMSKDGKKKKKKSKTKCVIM

Compound | IC50
C=CC(=O)N1CCN2C(=O)c3c(N4CCN(C(=O)C5CC5)C[C@@H]4C)nc(-c4c(O)cccc4F)c(Cl)c3OC[C@H]2C1 [Z320-1, (6aR)-8-acryloyl-4-chloro-1-((S)-4-(cyclopropanecarbonyl)-2-methylpiperazin-1-yl)-3-(2-fluoro-6-hydroxyphenyl)-6,6a,7,8,9,10-hexahydro-12H-pyrazino[2,1-c]pyrido[3,4-f][1,4]oxazepin-12-one] | 0.009 µM
C=CC(=O)N1CCN2C(=O)c3c(N4C[C@@H](CO)CC4(C)C)nc(-c4c(O)cccc4F)c(Cl)c3OC[C@H]2C1 (single isomer, unassigned) [Z240-1] | 0.011 µM
C=CC(=O)N1CCN2C(=O)c3c(N4C[C@@H](OC)CC4(C)C)nc(-c4c(O)cccc4F)c(F)c3OC[C@H]2C1 (single isomer, unassigned) [Z256a-1] | 0.041 µM
C=CC(=O)N1CCN2C(=O)c3c(N4CCN(C)C[C@@H]4C)nc(-c4c(F)ccc(Cl)c4O)c(Cl)c3OC[C@H]2C1 [Z342, (6aR)-8-acryloyl-4-chloro-3-(3-chloro-6-fluoro-2-hydroxyphenyl)-1-((S)-2,4-dimethylpiperazin-1-yl)-6,6a,7,8,9,10-hexahydro-12H-pyrazino[2,1-c]pyrido[3,4-f][1,4]oxazepin-12-one] | 0.074 µM
C=CC(=O)N1CCN2C(=O)c3c(N4CCN(C(C)=O)C(C)(C)C4)nc(-c4c(O)cccc4F)c(Cl)c3OC[C@H]2C1 [Z315, (6aR)-1-(4-acetyl-3,3-dimethylpiperazin-1-yl)-8-acryloyl-4-chloro-3-(2-fluoro-6-hydroxyphenyl)-6,6a,7,8,9,10-hexahydro-12H-pyrazino[2,1-c]pyrido[3,4-f][1,4]oxazepin-12-one] | 0.033 µM
C=CC(=O)N1CCN2C(=O)c3c(N4CC(C)(C)OC[C@@H]4C)nc(-c4c(O)cccc4F)c(Cl)c3OC[C@H]2C1 [Z276-1, (6aR)-8-acryloyl-4-chloro-3-(2-fluoro-6-hydroxyphenyl)-1-((S)-2,2,5-trimethylmorpholino)-6,6a,7,8,9,10-hexahydro-12H-pyrazino[2,1-c]pyrido[3,4-f][1,4]oxazepin-12-one] | 0.113 µM
C=CC(=O)N1CCN2C(=O)c3c(N4C[C@@H](O)CC4(C)C)nc(-c4c(O)cccc4F)c(F)c3OC[C@H]2C1 (single isomer, unassigned) [Z256-1] | 0.026 µM
C=CC(=O)N1CCN2C(=O)c3c(N4CCN(C(C)=O)C[C@@H]4C)nc(-c4c(O)cccc4F)c(Cl)c3OC[C@H]2C1 [Z313-1] | 0.013 µM
C=CC(=O)N1CCN2C(=O)c3c(N4C[C@@H](O)CC4(C)C)nc(-c4c(O)ccc(Cl)c4F)c(F)c3OC[C@H]2C1 (single isomer, unassigned) [Z340-1] | 0.027 µM
C=CC(=O)N1CCN2C(=O)c3c(N4CC(N(C)CCOC)CC4(C)C)nc(-c4c(O)cccc4F)c(Cl)c3OCC2C1 (single isomer, unassigned) [Z296-1] | 0.007 µM
C=CC(=O)N1CCN2C(=O)c3c(N4CCN(C)C[C@@H]4C)nc(-c4c(O)ccc(Cl)c4F)c(Cl)c3OC[C@H]2C1 [Z343, (6aR)-8-acryloyl-4-chloro-3-(3-chloro-2-fluoro-6-hydroxyphenyl)-1-((S)-2,4-dimethylpiperazin-1-yl)-6,6a,7,8,9,10-hexahydro-12H-pyrazino[2,1-c]pyrido[3,4-f][1,4]oxazepin-12-one] | 0.101 µM
